According to patent publication US20260258064A1 (SIRONAX LTD., priority 2023, published 2026):

molecular target: T1, SARM1 (50-724) (Homo sapiens, UniProt Q6SZW1); test: SARM1 (50-724) enzymatic assay (LC-MS/MS); assay type: biochemical; details: Purified SARM1 (50-724) 2 nM, NMN as activator, NAD+ as substrate, 1 h at room temperature, read-out: IC50 (SARM1 inhibitory activity)
T1 construct: Purified SARM1 (50-724) with a final concentration of 2 nM was pre-incubated with a test compound
T1 sequence (Q6SZW1 50-724): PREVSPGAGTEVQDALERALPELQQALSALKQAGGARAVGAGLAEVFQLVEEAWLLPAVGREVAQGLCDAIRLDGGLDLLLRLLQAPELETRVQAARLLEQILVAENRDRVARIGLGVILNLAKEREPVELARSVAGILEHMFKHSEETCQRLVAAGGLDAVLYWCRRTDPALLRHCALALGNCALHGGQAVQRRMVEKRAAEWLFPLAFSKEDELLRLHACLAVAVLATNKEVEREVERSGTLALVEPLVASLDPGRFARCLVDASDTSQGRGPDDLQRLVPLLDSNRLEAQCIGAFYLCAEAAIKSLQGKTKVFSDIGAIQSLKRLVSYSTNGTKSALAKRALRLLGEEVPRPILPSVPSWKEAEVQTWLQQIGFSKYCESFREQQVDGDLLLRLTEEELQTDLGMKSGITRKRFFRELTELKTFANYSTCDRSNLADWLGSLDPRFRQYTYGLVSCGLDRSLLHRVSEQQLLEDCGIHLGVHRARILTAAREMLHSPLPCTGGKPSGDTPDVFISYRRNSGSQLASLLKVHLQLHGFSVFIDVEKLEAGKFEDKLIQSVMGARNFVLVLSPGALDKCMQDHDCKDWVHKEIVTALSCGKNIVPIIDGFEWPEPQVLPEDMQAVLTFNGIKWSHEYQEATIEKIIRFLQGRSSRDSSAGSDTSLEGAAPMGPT
In short: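 Reaction buffer was Dulbecco's PBS. Compound and 2 nM human SARM1 (50-724) were pre-incubated 15 min at room temperature, then […] NAD^+ and 200 µM NMN activator were added for 1 h at room temperature. Acetonitrile (70%) stop, LC-MS/MS read-out, IC50 values.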

SMILES	IC50
CCOC(=O)/C=C/c1cccc2[nH]c(-c3nncn3-c3cnccc3C(F)(F)F)nc12 [Compound 459, ethyl (E)-3-(2-(4-(4-(trifluoromethyl)pyridin-3-yl)-4H-1,2,4-triazol-3-yl)-1H-benzo[d]imidazol-4-yl)acrylate]	500 to 1000 nM
CC(c1ccncc1)c1cc(F)c2[nH]c(-c3nnccc3-c3cnccc3C(F)(F)F)nc2c1 (stereo not drawn) [Compound 460, 7-fluoro-5-(1-(pyridin-4-yl)ethyl)-2-(4-(4-(trifluoromethyl)pyridin-3-yl)pyridazin-3-yl)-1H-benzo[d]imidazole]	≤ 100 nM
CC(c1ccncc1)c1cc(F)c2[nH]c(-c3nncn3-c3cccc(F)c3Br)nc2c1 (stereo not drawn) [Compound 462, 2-(4-(2-bromo-3-fluorophenyl)-4H-1,2,4-triazol-3-yl)-7-fluoro-5-(1-(pyridin-4-yl)ethyl)-1H-benzo[d]imidazole]	≤ 100 nM
NC(=O)C(F)(F)c1ccc2[nH]c(-c3nncn3-c3ccc(F)c(F)c3Cl)nc2c1 [Compound 463, 2-(2-(4-(2-chloro-3,4-difluorophenyl)-4H-1,2,4-triazol-3-yl)-1H-benzo[d]imidazol-5-yl)-2,2-difluoroacetamide]	≤ 100 nM
Fc1cc(C(F)(F)c2ccncc2)cc2nc(-c3nncn3-c3cnccc3C(F)(F)F)[nH]c12 [Compound 464, 6-(difluoro(pyridin-4-yl)methyl)-4-fluoro-2-(4-(4-(trifluoromethyl)pyridin-3-yl)-4H-1,2,4-triazol-3-yl)-1H-benzo[d]imidazole]	≤ 100 nM
CC(Cc1nccs1)c1cc(F)c2[nH]c(-c3nncn3-c3cnccc3C(F)(F)F)nc2c1 (stereo not drawn) [Compound 465, 2-(2-(7-fluoro-2-(4-(4-(trifluoromethyl)pyridin-3-yl)-4H-1,2,4-triazol-3-yl)-1H-benzo[d]imidazol-5-yl)propyl)thiazole]	≤ 100 nM
Fc1cc(C2(F)CC2)cc2nc(-c3nnccc3-c3nnccc3C(F)(F)F)[nH]c12 [Compound 466, 7-fluoro-5-(1-fluorocyclopropyl)-2-(4-(trifluoromethyl)-[3,4′-bipyridazin]-3′-yl)-1H-benzo[d]imidazole]	≤ 100 nM
Fc1cc(C(F)F)cc2nc(-c3nncn3-c3cnccc3C(F)(F)F)[nH]c12 [Compound 467, 6-(difluoromethyl)-4-fluoro-2-(4-(4-(trifluoromethyl)pyridin-3-yl)-4H-1,2,4-triazol-3-yl)-1H-benzo[d]imidazole]	≤ 100 nM
CC(F)(F)c1cc(F)c2[nH]c(-c3nncn3-c3cnccc3C(F)(F)F)nc2c1 [Compound 468, 6-(1,1-difluoroethyl)-4-fluoro-2-(4-(4-(trifluoromethyl)pyridin-3-yl)-4H-1,2,4-triazol-3-yl)-1H-benzo[d]imidazole]	≤ 100 nM
Cc1ccc2[nH]c(-c3nncn3C3CCCC3)nc2c1 [Example 1, 2-(4-cyclopentyl-4H-1,2,4-triazol-3-yl)-5-methyl-1H-benzo[d]imidazole]	> 1000 nM
Cc1ccc2[nH]c(-c3nncn3-c3cccc(Cl)c3Cl)nc2c1 [Example 5, 2-(4-(2,3-dichlorophenyl)-4H-1,2,4-triazol-3-yl)-5-methyl-1H-benzo[d]imidazole]	≤ 100 nM
FC(F)(F)c1ccc2[nH]c(-c3nncn3-c3cccc(Cl)c3Cl)nc2c1 [Example 15, 2-[4-(2,3-dichlorophenyl)-1,2,4-triazol-3-yl]-5-(trifluoromethyl)-1H-benzimidazole]	≤ 100 nM
Cc1ccc2[nH]c(-c3ncccc3-c3cccc(Cl)c3Cl)nc2c1 [Example 21]	> 1000 nM
Cc1ccc2[nH]c(-c3ccncc3-c3cccc(Cl)c3Cl)nc2c1 [Example 22]	500 to 1000 nM
Cc1ccc2[nH]c(-c3cnccc3-c3cccc(Cl)c3Cl)nc2c1 [Example 23]	≤ 100 nM
Cc1ccc2[nH]c(-c3c(-c4cccc(Cl)c4Cl)cnn3C)nc2c1 [Example 34]	> 1000 nM
O=c1[nH]ccc(-c2cccc(Cl)c2Cl)c1-c1nc2cc(C(F)(F)F)ccc2[nH]1 [Example 35]	100 to 500 nM
O=c1ccc(-c2cccc(Cl)c2Cl)c(-c2nc3cc(C(F)(F)F)ccc3[nH]2)[nH]1 [Example 37]	> 1000 nM
FC(F)(F)c1ccc2[nH]c(-c3cncnc3-c3cccc(Cl)c3Cl)nc2c1 [Example 38]	100 to 500 nM
Cn1ncc(-c2cccc(Cl)c2Cl)c1-c1nc2cc(C(F)(F)F)ccc2[nH]1 [Example 39]	> 1000 nM
O=c1cc(-c2nc3cc(C(F)(F)F)ccc3[nH]2)c(-c2cccc(Cl)c2Cl)c[nH]1 [Example 40, 5-(2,3-dichlorophenyl)-4-[5-(trifluoromethyl)-1H-benzimidazol-2-yl]-1H-pyridin-2-one]	≤ 100 nM
FC(F)(F)c1ccc2[nH]c(-c3scnc3-c3cccc(Cl)c3Cl)nc2c1 [Example 42]	500 to 1000 nM
FC(F)(F)c1ccc2[nH]c(-c3n[nH]cc3-c3cccc(Cl)c3Cl)nc2c1 [Example 43]	500 to 1000 nM

SMILES	IC50
FC(F)(F)c1ccc2[nH]c(-c3cnncc3-c3cccc(Cl)c3Cl)nc2c1 [Example 44]	100 to 500 nM
FC(F)(F)c1ccc2[nH]c(-c3cncn3-c3cccc(Cl)c3Cl)nc2c1 [Example 45, 2-(1-(2,3-dichlorophenyl)-1H-imidazol-5-yl)-5-(trifluoromethyl)-1H-benzo[d]imidazole]	≤ 100 nM
CS(=O)(=O)c1ccc2[nH]c(-c3nncn3-c3cccc(Cl)c3Cl)nc2c1 [Example 46, 2-(4-(2,3-dichlorophenyl)-4H-1,2,4-triazol-3-yl)-5-(methylsulfonyl)-1H-benzo[d]imidazole]	100 to 500 nM
N#Cc1c(-c2cnccc2-c2cccc(Cl)c2Cl)[nH]c2ccc(C(F)(F)F)cc12 [Example 47, 2-(4-(2,3-dichlorophenyl)pyridin-3-yl)-5-(trifluoromethyl)-1H-indole-3-carbonitrile]	≤ 100 nM
Cn1cc(-c2cccc(Cl)c2Cl)c(-c2nc3cc(C(F)(F)F)ccc3[nH]2)cc1=O [Example 48]	≤ 100 nM
N#Cc1c(Cl)ccc2[nH]c(-c3nncn3-c3cccc(Cl)c3Cl)nc12 [Example 50, 5-chloro-2-(4-(2,3-dichlorophenyl)-4H-1,2,4-triazol-3-yl)-1H-benzo[d]imidazole-4-carbonitrile]	100 to 500 nM
Cc1cc(-c2ccc3[nH]c(-c4nncn4-c4cccc(Cl)c4Cl)nc3c2)[nH]n1 [Example 51, 2-(4-(2,3-dichlorophenyl)-4H-1,2,4-triazol-3-yl)-5-(3-methyl-1H-pyrazol-5-yl)-1H-benzo[d]imidazole]	≤ 100 nM
CS(=O)(=O)c1cccc(-n2cnnc2-c2nc3cc(C(F)(F)F)ccc3[nH]2)c1 [Example 52]	> 1000 nM
Cn1nc(-n2cnnc2-c2nc3cc(C(F)(F)F)ccc3[nH]2)c(Cl)c1Cl [Example 53, 2-(4-(4,5-Dichloro-1-methyl-1H-pyrazol-3-yl)-4H-1,2,4-triazol-3-yl)-5-(trifluoromethyl)-1H-benzo[d]imidazole]	≤ 100 nM
O=c1nc(-c2nc3cc(C(F)(F)F)ccc3[nH]2)c(-c2cccc(Cl)c2Cl)c[nH]1 [Example 54]	100 to 500 nM
Clc1cccc(-n2cnnc2-c2nc3cc(C4COC4)ccc3[nH]2)c1Cl [Example 55, 2-(4-(2,3-dichlorophenyl)-4H-1,2,4-triazol-3-yl)-5-(oxetan-3-yl)-1H-benzo[d]imidazole]	100 to 500 nM
Clc1cccc(-n2cnnc2-c2nc3cc(-c4cnn[nH]4)ccc3[nH]2)c1Cl [Example 56, 2-(4-(2,3-dichlorophenyl)-4H-1,2,4-triazol-3-yl)-5-(1H-1,2,3-triazol-5-yl)-1H-benzo[d]imidazole]	100 to 500 nM
FC(F)(F)c1ccc2[nH]c(-c3nccn3-c3cccc(Cl)c3Cl)nc2c1 [Example 57]	100 to 500 nM
Fc1cccc(-n2cnnc2-c2nc3cc(C(F)(F)F)ccc3[nH]2)c1Cl [Example 59, 2-(4-(2-chloro-3-fluorophenyl)-4H-1,2,4-triazol-3-yl)-5-(trifluoromethyl)-1H-benzo[d]imidazole]	≤ 100 nM
COc1ccc(-c2cccc(Cl)c2Cl)c(-c2nc3cc(C(F)(F)F)ccc3[nH]2)n1 [Example 60]	> 1000 nM
FC(F)(F)c1ccc2[nH]c(-c3c[nH]nc3-c3cccc(Cl)c3Cl)nc2c1 [Example 61]	500 to 1000 nM
FC(F)(F)c1ccc2[nH]c(-c3nncn3-c3cccc4nccn34)nc2c1 [Example 62]	> 1000 nM
Cn1nc(Cl)c(Cl)c1-n1cnnc1-c1nc2cc(C(F)(F)F)ccc2[nH]1 [Example 63]	100 to 500 nM
O=c1cc(-c2nc3cc(C(F)(F)F)ccc3[nH]2)c(-c2cccc(Cl)c2Cl)cn1CCO [Example 64]	≤ 100 nM
OCCOc1cc(-c2nc3cc(C(F)(F)F)ccc3[nH]2)c(-c2cccc(Cl)c2Cl)cn1 [Example 65]	≤ 100 nM
Cc1ccnc(-n2cnnc2-c2nc3cc(C(F)(F)F)ccc3[nH]2)c1Cl [Example 66]	≤ 100 nM
Cc1c(Cl)ccnc1-n1cnnc1-c1nc2cc(C(F)(F)F)ccc2[nH]1 [Example 67]	≤ 100 nM
